Data from patent US20150148234A1, “HERBICIDE-RESISTANT SUNFLOWER PLANTS WITH MULTIPLE HERBICIDE RESISTANT ALLELES OF AHASL1 AND METHODS OF USE” (NIDERA S.A., priority 2013, published 2015).
Marks after values point to notes of the source that are not given here.

Legend:
sunflower line L4, A122T = test: imazapyr whole plant greenhouse test (Example 2); assay type: in vivo
Method: (§1) Seeds were sown in Petri dishes and, after germination, plantlets were transplanted to pots of 10 cm of diameter in a potting media consisting of equal parts of vermiculite, soil and sand. Plants were grown in a greenhouse under natural light conditions supplemented with 400 W sodium halide lamps to provide a 16 hr daylength. Day/night temperatures were 25 and 20 ° C., respectively. At the V2-V4 stage (Schneiter & Miller (1981) Crop Sci. 21:901-903) 10 plants of each genotype were randomly assigned to each treatment consisting of eight imazapyr doses (0, 40, 80, 160, 240, 320, 400 and 480 g ai/ha, corresponding to untreated, 0.5×, 1×, 2×, 3×, 4×, 5× and 6×, respectively), and a zero-time biomass determination. Experiment was arranged as a randomized block design with a full factorial (sunflower line×treatment) arrangement of treatments and 10 replications.
(§2) On the day of herbicide application ten plants of each genotype were cut at the cotyledonal node and dried at 60° C. for 48 hrs for zero-time dried weight determination.
(§3) The remaining plants were maintained for 14 days after imazapyr treatment (DAT) and their height, Phytotoxicity Index (PI) and above ground dry biomass were determined Height was determined as the distance between the cotyledonal node and the apex of each plant. Above ground biomass data from each line were converted to biomass accumulation after application by subtracting the appropriate average zero- time biomass from each sample. Dry biomass data were converted to percentages of the untreated control plants within each line to allow direct comparisons between groups.

[1] = system: sunflower line L3 (cmsGM40), A122T; test: imazapyr whole plant greenhouse test (Example 2); assay type: in vivo
Method: as §1, §2, §3

[2] = system: sunflower hybrid H4 (L1 × L4), A205V + A122T; test: imazapyr whole plant greenhouse test (Example 2); assay type: in vivo
Method: as §1, §2, §3

[3] = system: sunflower genotypes carrying A205V (mean of H1, L1, L2); test: imazapyr whole plant greenhouse test (Example 2); assay type: in vivo; settings: for Phytotoxicity Index (0-9) 14 days after treatment / biomass accumulation 14 days after treatment, % of untreated / plant height 14 days after treatment, % of untreated: A205V Mean
Method: as §1, §2, §3

[4] = system: heterozygous A205V entries; test: field phytotoxicity trial North Dakota 2006 (Example 3); assay type: in vivo, sunflower; settings: 160 g ai/ha of imazapyr, 21 DAT
Method: (§4) • Spray volume: 10 gallons per acre (GPA) (or 100 liters/ha) for backpack sprayer or 20 GPA (or 200 liters/ha) for tractor mounted boom • Growth Stage at Herbicide Application: 2-4 leaves • Entry 15 (WT Maintainer line) was left unsprayed in all treatment blocks.
(§5) Phytotoxicity ratings were assessed at 7 and 21 days following herbicide application.
(§6) The data was subjected to an ANOVA analysis and the means from the 3 repetitions are presented in Table 7 (phytotoxicity at 7 days post-treatment) and Table 8 (phytotoxicity at 21 days post-treatment).

[5] = system: homozygous A205V/A205V lines; test: as above; assay type: in vivo, sunflower; settings: 200 g ai/ha of imazamox, 21 DAT
Method: as §4, §5, §6

[6] = system: heterozygous A205V/A122T lines; test: as above; assay type: in vivo, sunflower; settings: 200 g ai/ha of imazamox, 21 DAT
Method: as §4, §5, §6

[7] = system: homozygous A122T/A122T lines; test: as above; assay type: in vivo, sunflower; settings: 200 g ai/ha of imazamox, 21 DAT
Method: as §4, §5, §6

Compound: CC(C)C1(C)N=C(c2ncccc2C(=O)O)NC1=O (centres unmarked) [imazapyr]
- Phytotoxicity Index (0-9) 14 days after treatment (sunflower line L4, A122T; dose 0.5 (0.5x, 40 g ai/ha)): 0.0
- biomass accumulation 14 days after treatment, % of untreated (sunflower line L4, A122T; dose 0.5 (0.5x, 40 g ai/ha)): 100.0%
- plant height 14 days after treatment, % of untreated (sunflower line L4, A122T; dose 0.5 (0.5x, 40 g ai/ha)): 100.0%
- Phytotoxicity Index (0-9) 14 days after treatment (sunflower line L4, A122T; dose 1 (1x, 80 g ai/ha)): 0.0
- biomass accumulation 14 days after treatment, % of untreated (sunflower line L4, A122T; dose 1 (1x, 80 g ai/ha)): 99.1%
- plant height 14 days after treatment, % of untreated (sunflower line L4, A122T; dose 1 (1x, 80 g ai/ha)): 100.0%
- Phytotoxicity Index (0-9) 14 days after treatment (sunflower line L4, A122T; dose 2 (2x, 160 g ai/ha)): 0.0
- biomass accumulation 14 days after treatment, % of untreated (sunflower line L4, A122T; dose 2 (2x, 160 g ai/ha)): 97.0%
- plant height 14 days after treatment, % of untreated (sunflower line L4, A122T; dose 2 (2x, 160 g ai/ha)): 101.8%
- Phytotoxicity Index (0-9) 14 days after treatment (sunflower line L4, A122T; dose 3 (3x, 240 g ai/ha)): 0.0
- biomass accumulation 14 days after treatment, % of untreated (sunflower line L4, A122T; dose 3 (3x, 240 g ai/ha)): 96.1%
- plant height 14 days after treatment, % of untreated (sunflower line L4, A122T; dose 3 (3x, 240 g ai/ha)): 97.0%
- Phytotoxicity Index (0-9) 14 days after treatment (sunflower line L4, A122T; dose 4 (4x, 320 g ai/ha)): 0.0
- biomass accumulation 14 days after treatment, % of untreated (sunflower line L4, A122T; dose 4 (4x, 320 g ai/ha)): 84.3%
- plant height 14 days after treatment, % of untreated (sunflower line L4, A122T; dose 4 (4x, 320 g ai/ha)): 92.1%
- Phytotoxicity Index (0-9) 14 days after treatment (sunflower line L4, A122T; dose 5 (5x, 400 g ai/ha)): 0.0
- biomass accumulation 14 days after treatment, % of untreated (sunflower line L4, A122T; dose 5 (5x, 400 g ai/ha)): 77.5%
- plant height 14 days after treatment, % of untreated (sunflower line L4, A122T; dose 5 (5x, 400 g ai/ha)): 84.8%
- Phytotoxicity Index (0-9) 14 days after treatment (sunflower line L4, A122T; dose 6 (6x, 480 g ai/ha)): 0.5
- biomass accumulation 14 days after treatment, % of untreated (sunflower line L4, A122T; dose 6 (6x, 480 g ai/ha)): 70.7%
- plant height 14 days after treatment, % of untreated (sunflower line L4, A122T; dose 6 (6x, 480 g ai/ha)): 79.8%
- Phytotoxicity Index (0-9) 14 days after treatment ([1]; dose 0.5 (0.5x, 40 g ai/ha)): 0.4
- biomass accumulation 14 days after treatment, % of untreated ([1]; dose 0.5 (0.5x, 40 g ai/ha)): 96.6%
- plant height 14 days after treatment, % of untreated ([1]; dose 0.5 (0.5x, 40 g ai/ha)): 100.4%
- Phytotoxicity Index (0-9) 14 days after treatment ([1]; dose 1 (1x, 80 g ai/ha)): 0.4
- biomass accumulation 14 days after treatment, % of untreated ([1]; dose 1 (1x, 80 g ai/ha)): 93.9%
- plant height 14 days after treatment, % of untreated ([1]; dose 1 (1x, 80 g ai/ha)): 99.9%
- Phytotoxicity Index (0-9) 14 days after treatment ([1]; dose 2 (2x, 160 g ai/ha)): 0.4
- biomass accumulation 14 days after treatment, % of untreated ([1]; dose 2 (2x, 160 g ai/ha)): 81.6%
- plant height 14 days after treatment, % of untreated ([1]; dose 2 (2x, 160 g ai/ha)): 92.0%
- Phytotoxicity Index (0-9) 14 days after treatment ([1]; dose 3 (3x, 240 g ai/ha)): 0.5
- biomass accumulation 14 days after treatment, % of untreated ([1]; dose 3 (3x, 240 g ai/ha)): 75.8%
- plant height 14 days after treatment, % of untreated ([1]; dose 3 (3x, 240 g ai/ha)): 90.5%
- Phytotoxicity Index (0-9) 14 days after treatment ([1]; dose 4 (4x, 320 g ai/ha)): 1.0
- biomass accumulation 14 days after treatment, % of untreated ([1]; dose 4 (4x, 320 g ai/ha)): 75.0%
- plant height 14 days after treatment, % of untreated ([1]; dose 4 (4x, 320 g ai/ha)): 90.8%
- Phytotoxicity Index (0-9) 14 days after treatment ([1]; dose 5 (5x, 400 g ai/ha)): 2.0
- biomass accumulation 14 days after treatment, % of untreated ([1]; dose 5 (5x, 400 g ai/ha)): 60.1%
- plant height 14 days after treatment, % of untreated ([1]; dose 5 (5x, 400 g ai/ha)): 84.4%
- Phytotoxicity Index (0-9) 14 days after treatment ([1]; dose 6 (6x, 480 g ai/ha)): 2.5
- biomass accumulation 14 days after treatment, % of untreated ([1]; dose 6 (6x, 480 g ai/ha)): 59.6%
- plant height 14 days after treatment, % of untreated ([1]; dose 6 (6x, 480 g ai/ha)): 84.4%
- Phytotoxicity Index (0-9) 14 days after treatment ([2]; dose 0.5 (0.5x, 40 g ai/ha)): 0.0
- biomass accumulation 14 days after treatment, % of untreated ([2]; dose 0.5 (0.5x, 40 g ai/ha)): 99.479%
- plant height 14 days after treatment, % of untreated ([2]; dose 0.5 (0.5x, 40 g ai/ha)): 100.0%
- Phytotoxicity Index (0-9) 14 days after treatment ([2]; dose 1 (1x, 80 g ai/ha)): 0.0
- biomass accumulation 14 days after treatment, % of untreated ([2]; dose 1 (1x, 80 g ai/ha)): 97.8%
- plant height 14 days after treatment, % of untreated ([2]; dose 1 (1x, 80 g ai/ha)): 99.6%
- Phytotoxicity Index (0-9) 14 days after treatment ([2]; dose 2 (2x, 160 g ai/ha)): 0.0
- biomass accumulation 14 days after treatment, % of untreated ([2]; dose 2 (2x, 160 g ai/ha)): 92.2%
- plant height 14 days after treatment, % of untreated ([2]; dose 2 (2x, 160 g ai/ha)): 100.0%
- Phytotoxicity Index (0-9) 14 days after treatment ([2]; dose 3 (3x, 240 g ai/ha)): 0.0
- biomass accumulation 14 days after treatment, % of untreated ([2]; dose 3 (3x, 240 g ai/ha)): 88.2%
- plant height 14 days after treatment, % of untreated ([2]; dose 3 (3x, 240 g ai/ha)): 100.0%
- Phytotoxicity Index (0-9) 14 days after treatment ([2]; dose 4 (4x, 320 g ai/ha)): 0.0
- biomass accumulation 14 days after treatment, % of untreated ([2]; dose 4 (4x, 320 g ai/ha)): 85.0%
- plant height 14 days after treatment, % of untreated ([2]; dose 4 (4x, 320 g ai/ha)): 95.0%
- Phytotoxicity Index (0-9) 14 days after treatment ([2]; dose 5 (5x, 400 g ai/ha)): 0.2
- biomass accumulation 14 days after treatment, % of untreated ([2]; dose 5 (5x, 400 g ai/ha)): 78.7%
- plant height 14 days after treatment, % of untreated ([2]; dose 5 (5x, 400 g ai/ha)): 87.2%
- Phytotoxicity Index (0-9) 14 days after treatment ([2]; dose 6 (6x, 480 g ai/ha)): 0.0
- biomass accumulation 14 days after treatment, % of untreated ([2]; dose 6 (6x, 480 g ai/ha)): 71.8%
- plant height 14 days after treatment, % of untreated ([2]; dose 6 (6x, 480 g ai/ha)): 65.5%
- Phytotoxicity Index (0-9) 14 days after treatment ([3]; dose 0.5 (0.5x, 40 g ai/ha)): 0
- biomass accumulation 14 days after treatment, % of untreated ([3]; dose 0.5 (0.5x, 40 g ai/ha)): 95.3* %
- plant height 14 days after treatment, % of untreated ([3]; dose 0.5 (0.5x, 40 g ai/ha)): 99.6%
- Phytotoxicity Index (0-9) 14 days after treatment ([3]; dose 1 (1x, 80 g ai/ha)): 0
- biomass accumulation 14 days after treatment, % of untreated ([3]; dose 1 (1x, 80 g ai/ha)): 85.5** %
- plant height 14 days after treatment, % of untreated ([3]; dose 1 (1x, 80 g ai/ha)): 99.2%
- Phytotoxicity Index (0-9) 14 days after treatment ([3]; dose 2 (2x, 160 g ai/ha)): 2.2*
- biomass accumulation 14 days after treatment, % of untreated ([3]; dose 2 (2x, 160 g ai/ha)): 62.8** %
- plant height 14 days after treatment, % of untreated ([3]; dose 2 (2x, 160 g ai/ha)): 73.7** %
- Phytotoxicity Index (0-9) 14 days after treatment ([3]; dose 3 (3x, 240 g ai/ha)): 5.1**
- biomass accumulation 14 days after treatment, % of untreated ([3]; dose 3 (3x, 240 g ai/ha)): 48.1** %
- plant height 14 days after treatment, % of untreated ([3]; dose 3 (3x, 240 g ai/ha)): 50.1** %
- Phytotoxicity Index (0-9) 14 days after treatment ([3]; dose 4 (4x, 320 g ai/ha)): 7.4**
- biomass accumulation 14 days after treatment, % of untreated ([3]; dose 4 (4x, 320 g ai/ha)): 33.5** %
- plant height 14 days after treatment, % of untreated ([3]; dose 4 (4x, 320 g ai/ha)): 31.5** %
- Phytotoxicity Index (0-9) 14 days after treatment ([3]; dose 5 (5x, 400 g ai/ha)): 8.2**
- biomass accumulation 14 days after treatment, % of untreated ([3]; dose 5 (5x, 400 g ai/ha)): 28.7** %
- plant height 14 days after treatment, % of untreated ([3]; dose 5 (5x, 400 g ai/ha)): 27.7** %
- Phytotoxicity Index (0-9) 14 days after treatment ([3]; dose 6 (6x, 480 g ai/ha)): 8.2**
- biomass accumulation 14 days after treatment, % of untreated ([3]; dose 6 (6x, 480 g ai/ha)): 26.1** %
- plant height 14 days after treatment, % of untreated ([3]; dose 6 (6x, 480 g ai/ha)): 30.4** %
- height reduction, value reached ([3]; A205V homozygous, from 2x to 6x, of the untreated controls): 69.6%
- phytotoxicity [4]: 20-43%

Compound: COCc1cnc(C2=NC(C)(C(C)C)C(=O)N2)c(C(=O)O)c1 (centres unmarked) [imazamox]
- phytotoxicity [5]: 15-22%
- phytotoxicity [6]: 2-3%
- phytotoxicity [7]: 3-5%
